Data as given in PubChem BioAssay (NCI).
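These data come from cells grown in 96-well plates and exposed to compound for 48 hours at five concentrations. The concentration for full growth arrest is given as TGI.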

Experiments:
Assay in all cases: NCI-60 cell line screen, 48 h
[1] = tested on: SN12C renal
[2] = tested on: IGROV1 ovarian
[3] = tested on: CAKI-1 renal
[4] = tested on: SNB-75 CNS
[5] = tested on: MOLT-4 leukemia
[6] = tested on: RXF 393 renal
[7] = tested on: TK-10 renal
[8] = tested on: BT-549 breast
[9] = tested on: SNB-19 CNS
[10] = tested on: A498 renal

| Compound | TGI [1] [µM] | TGI [2] [µM] | TGI [3] [µM] | TGI [4] [µM] | TGI [5] [µM] | TGI [6] [µM] | TGI [7] [µM] | TGI [8] [µM] | TGI [9] [µM] | TGI [10] [µM] |
| --- | --- | --- | --- | --- | --- | --- | --- | --- | --- | --- |
| CC(C)CCC1(O)O[C@H]2C[C@H]3[C@@H]4CCC5CC(=O)C=C[C@]5(C)[C@H]4CC[C@]3(C)[C@H]2[C@@H]1C (stereo not given in full) | 28 | 30.3 | 28.1 | 28 | 7.15 | 24.2 | 24.2 | 27.3 | 31.3 | 28.5 |
| COc1cc(/C=C/C(C)=O)ccc1OP(=O)(O)O | > 100 | > 100 | > 100 | > 100 | > 100 | > 100 | > 100 | > 100 | > 100 | > 100 |
| CC(=O)Oc1ccc2c(c1)c1c(=O)oc(N(C)C)nc1n2Cc1ccccc1 | > 100 | > 100 | > 73.3 | > 100 | > 100 | > 100 | > 100 | > 100 | > 100 | > 83 |
| O=C(O)CSCC(=O)Nc1ccc2cccc3c2c1CC3 | > 100 | > 100 | > 100 | > 100 | > 100 | > 100 | > 100 | > 100 | > 100 | > 100 |
| NNC(=O)c1c(Cl)c(Cl)c(Cl)c(Cl)c1-c1nc2ccccc2[nH]1 | > 100 | 27.7 | 38 | 38.2 | 26.3 | 21.9 | 63.2 | 46.5 | 88.8 | 49.9 |
| COc1cc(N=NN(C)C)c(C(C)c2c3cc(OC)c(OC)cc3cc[n+]2C)cc1OC (stereo not given) | > 100 | > 100 | > 100 | > 100 | > 100 | > 100 | 97.5 | > 100 | > 100 | > 100 |
| CC(=O)C1=C(N=[N+]=[N-])c2cccc3cccc(c23)C1=O | 39.7 | 32.6 | 30.7 | 66.9 | 33.2 | 28 | 36.1 | 46.2 | 91.7 | 71 |
| O=C(CSc1nc(=O)[nH]c2nc[nH]c12)Nc1ccccc1 | > 100 | > 100 | > 100 | > 100 | > 100 | > 100 | > 100 | > 100 | > 100 | > 100 |
| Cc1nc2c(o1)C(=O)c1ccccc1/C2=N/c1ccccn1 | 64.1 | 51.4 | 47.9 | 20.9 | 43.2 | > 100 | > 100 | 32.2 | 28.3 | 30.7 |
